# How the values were obtained:
# Type in all cases: ADME
# [1] = Drug metabolism in dexamethasone treated CD1 mouse liver microsomes assessed as metabolite formation at 20 uM after 30 mins by LC/MS analysis in presence of NADPH and CYP2C inhibitor sulfaphenazole; settings: 0.5 h
# Liver microsome [2] = assay: Drug metabolism in human liver microsomes assessed as metabolite formation at 20 uM after 30 mins by LC/MS analysis in presence of NADPH and docetaxel; settings: 0.5 h
# [3] = Drug metabolism in prednisone treated CD1 mouse liver microsomes assessed as metabolite formation at 20 uM after 30 mins by LC/MS analysis in presence of NADPH and CYP2E inhibitor di-ethyldithiocarbamate; settings: 0.5 h
# Liver microsome [4] = assay: Drug metabolism in human liver microsomes assessed as metabolite formation at 20 uM after 30 mins by LC/MS analysis in presence of NADPH and ketoconazole; settings: 0.5 h
# [5] = Drug metabolism in prednisone treated CD1 mouse liver microsomes assessed as 1alpha,24S,25(OH)3D3 metabolite formation at 20 uM after 30 mins by LC/MS analysis in presence of NADPH; settings: 0.5 h
# [6] = Drug metabolism in CD1 mouse liver microsomes assessed as metabolite formation at 20 uM after 30 mins by LC/MS analysis in presence of NADPH and CYP1A1 inhibitor alpha-naphthoflavone; settings: 0.5 h
# [7] = Drug metabolism in prednisone treated CD1 mouse liver microsomes assessed as metabolite formation at 20 uM after 30 mins by LC/MS analysis in presence of NADPH and CYP2D inhibitor quinine; settings: 0.5 h
# [8] = Drug metabolism in prednisone treated CD1 mouse liver microsomes assessed as 1alpha,24R,25(OH)3D3 metabolite formation at 20 uM after 30 mins by LC/MS analysis in presence of NADPH; settings: 0.5 h
# Liver microsome [9] = assay: Drug metabolism in human liver microsomes assessed as metabolite formation at 20 uM after 30 mins by LC/MS analysis in presence of NADPH and tamoxifen; settings: 0.5 h
# [10] = Drug metabolism in dexamethasone treated CD1 mouse liver microsomes assessed as metabolite formation at 20 uM after 30 mins by LC/MS analysis in presence of NADPH and CYP1A2 inhibitor furafyline; settings: 0.5 h
# [11] = Drug metabolism in CD1 mouse liver microsomes assessed as metabolite formation at 20 uM after 30 mins by LC/MS analysis in presence of NADPH and CYP2A inhibitor 8-methoxypsoralen; settings: 0.5 h
# [12] = Drug metabolism in CD1 mouse liver microsomes assessed as metabolite formation at 20 uM after 30 mins by LC/MS analysis in presence of NADPH and CYP2D inhibitor quinine; settings: 0.5 h
# [13] = Drug metabolism in dexamethasone treated CD1 mouse liver microsomes assessed as metabolite formation at 20 uM after 30 mins by LC/MS analysis in presence of NADPH and CYP2D inhibitor quinine; settings: 0.5 h
# Liver microsome [14] = assay: Drug metabolism in human liver microsomes assessed as assessed as metabolite formation at 20 uM after 30 mins by LC/MS analysis in presence of NADPH; settings: 0.5 h
# [15] = Drug metabolism in CD1 mouse liver microsomes assessed as metabolite formation at 20 uM after 30 mins by LC/MS analysis in presence of NADPH and CYP1A2 inhibitor furafyline; settings: 0.5 h
# [16] = Drug metabolism in prednisone treated CD1 mouse liver microsomes assessed as metabolite formation at 20 uM after 30 mins by LC/MS analysis in presence of NADPH and CYP2B inhibitor orphenadrine; settings: 0.5 h
# [17] = Drug metabolism in prednisone treated CD1 mouse liver microsomes assessed as 1alpha,23S,25(OH)3D3 metabolite formation at 20 uM after 30 mins by LC/MS analysis in presence of NADPH; settings: 0.5 h
# [18] = Drug metabolism in dexamethasone treated CD1 mouse liver microsomes assessed as depletion of parent compound at 1 uM after 30 mins by LC/MS analysis in presence of NADPH; settings: liver microsomes from dexamethasone-treated mice, read-out: Drug metabolism
# [19] = Drug metabolism in dexamethasone treated CD1 mouse liver microsomes assessed as 1alpha,23R,25(OH)3D3 metabolite formation at 20 uM after 30 mins by LC/MS analysis in presence of NADPH; settings: 0.5 h
# [20] = Drug metabolism in dexamethasone treated CD1 mouse liver microsomes assessed as metabolite formation at 20 uM after 30 mins by LC/MS analysis in presence of NADPH and CYP2A inhibitor 8-methoxypsoralen; settings: 0.5 h
# [21] = Drug metabolism in dexamethasone treated CD1 mouse liver microsomes assessed as metabolite formation at 20 uM after 30 mins by LC/MS analysis in presence of NADPH and CYP2E inhibitor di-ethyldithiocarbamate; settings: 0.5 h
# [22] = Drug metabolism in prednisone treated CD1 mouse liver microsomes assessed as metabolite formation at 20 uM after 30 mins by LC/MS analysis in presence of NADPH and CYP2C inhibitor sulfaphenazole; settings: 0.5 h
# [23] = Drug metabolism in CD1 mouse liver microsomes assessed as metabolite formation at 20 uM after 30 mins by LC/MS analysis in presence of NADPH and CYP2C inhibitor sulfaphenazole; settings: 0.5 h
# [24] = Drug metabolism in prednisone treated CD1 mouse liver microsomes assessed as metabolite formation at 20 uM after 30 mins by LC/MS analysis in presence of NADPH and CYP1A1 inhibitor alpha-naphthoflavone; settings: 0.5 h
# [25] = Drug metabolism in dexamethasone treated CD1 mouse liver microsomes assessed as 1alpha,24S,25(OH)3D3 metabolite formation at 20 uM after 30 mins by LC/MS analysis in presence of NADPH; settings: 0.5 h
# [26] = Drug metabolism in CD1 mouse liver microsomes assessed as metabolite formation at 20 uM after 30 mins by LC/MS analysis in presence of NADPH and CYP2E inhibitor di-ethyldithiocarbamate; settings: 0.5 h
# Liver microsome [27] = assay: Drug metabolism in human liver microsomes assessed as metabolite formation at 20 uM after 30 mins by LC/MS analysis in presence of NADPH and ritonavir; settings: 0.5 h
# Liver microsome [28] = assay: Drug metabolism in human liver microsomes assessed as metabolite formation at 20 uM after 30 mins by LC/MS analysis in presence of NADPH and paclitaxel; settings: 0.5 h
# [29] = Drug metabolism in CD1 mouse liver microsomes assessed as metabolite formation at 20 uM after 30 mins by LC/MS analysis in presence of NADPH and CYP450 inhibitor SKF525A; settings: 0.5 h
# [30] = Drug metabolism in prednisone treated CD1 mouse liver microsomes assessed as 1alpha,23R,25(OH)3D3 metabolite formation at 20 uM after 30 mins by LC/MS analysis in presence of NADPH; settings: 0.5 h
# [31] = Drug metabolism in CD1 mouse liver microsomes assessed as depletion of parent compound at 1 uM after 30 mins by LC/MS analysis in presence of NADPH; settings: 0.5 h
# [32] = Drug metabolism in prednisone treated CD1 mouse liver microsomes assessed as metabolite formation at 20 uM after 30 mins by LC/MS analysis in presence of NADPH and CYP2A inhibitor 8-methoxypsoralen; settings: 0.5 h
# [33] = Drug metabolism in prednisone treated CD1 mouse liver microsomes assessed as depletion of parent compound at 1 uM after 30 mins by LC/MS analysis in presence of NADPH; settings: 0.5 h
# [34] = Drug metabolism in dexamethasone treated CD1 mouse liver microsomes assessed as metabolite formation at 20 uM after 30 mins by LC/MS analysis in presence of NADPH and CYP2B inhibitor orphenadrine; settings: 0.5 h
# [35] = Drug metabolism in dexamethasone treated CD1 mouse liver microsomes assessed as metabolite formation at 20 uM after 30 mins by LC/MS analysis in presence of NADPH and CYP1A1 inhibitor alpha-naphthoflavone; settings: 0.5 h
# [36] = Drug metabolism in prednisone treated CD1 mouse liver microsomes assessed as metabolite formation at 20 uM after 30 mins by LC/MS analysis in presence of NADPH and CYP450 inhibitor SKF525A; settings: 0.5 h
# [37] = Drug metabolism in prednisone treated CD1 mouse liver microsomes assessed as metabolite formation at 20 uM after 30 mins by LC/MS analysis in presence of NADPH and CYP1A2 inhibitor furafyline; settings: 0.5 h
# [38] = Drug metabolism in CD1 mouse liver microsomes assessed as metabolite formation at 20 uM after 30 mins by LC/MS analysis in presence of NADPH and CYP2B inhibitor orphenadrine; settings: 0.5 h
# [39] = Drug metabolism in dexamethasone treated CD1 mouse liver microsomes assessed as metabolite formation at 20 uM after 30 mins by LC/MS analysis in presence of NADPH and CYP450 inhibitor SKF525A; settings: 0.5 h
structure (smiles),measurement,setting,value
C=C1/C(=C\C=C2/CCC[C@]3(C)[C@@H]([C@H](C)CCCC(C)(C)O)CC[C@@H]23)C[C@@H](O)C[C@@H]1O [CALCITRIOL],Drug metabolism,[1],metabolite_detected
same,Drug metabolism,Liver microsome [2],metabolite_not_detected
same,Drug metabolism,[3],metabolite_detected
same,Drug metabolism,Liver microsome [4],metabolite_not_detected
same,Drug metabolism,[5],metabolite_detected
same,Drug metabolism,[6],metabolite_detected
same,Drug metabolism,[7],metabolite_detected
same,Drug metabolism,[8],metabolite_detected
same,Drug metabolism,Liver microsome [9],metabolite_not_detected
same,Drug metabolism,[10],metabolite_detected
same,Drug metabolism,[11],metabolite_detected
same,Drug metabolism,[12],metabolite_detected
same,Drug metabolism,[13],metabolite_detected
same,Drug metabolism,Liver microsome [14],metabolite_detected
same,Drug metabolism,[15],metabolite_detected
same,Drug metabolism,[16],metabolite_detected
same,Drug metabolism,[17],metabolite_detected
same,"metabolised at 0.5 h, 1 µM",[18],70%
same,Drug metabolism,[19],metabolite_detected
same,Drug metabolism,[20],metabolite_detected
same,Drug metabolism,[21],metabolite_detected
same,Drug metabolism,[22],metabolite_detected
same,Drug metabolism,[23],metabolite_detected
same,Drug metabolism,[24],metabolite_detected
same,Drug metabolism,[25],metabolite_detected
same,Drug metabolism,[26],metabolite_detected
same,Drug metabolism,Liver microsome [27],metabolite_not_detected
same,Drug metabolism,Liver microsome [28],metabolite_not_detected
same,Drug metabolism,[29],metabolite_not_detected
same,Drug metabolism,[30],metabolite_detected
same,Drug metabolism,[31],metabolite_not_detected
same,Drug metabolism,[32],metabolite_detected
same,Drug metabolism,[33],metabolite_not_detected
same,Drug metabolism,[34],metabolite_detected
same,Drug metabolism,[35],metabolite_detected
same,Drug metabolism,[36],metabolite_not_detected
same,Drug metabolism,[37],metabolite_detected
same,Drug metabolism,[38],metabolite_detected
same,Drug metabolism,[39],metabolite_not_detected

# From ChEMBL document CHEMBL3525924, “Cytochrome P450 3A-mediated microsomal biotransformation of 1α,25-dihydroxyvitamin D3 in mouse and human liver: drug-related induction and inhibition of catabolism” (Drug Metab Dispos, 2012)
